Laboratory results: patent publication US7772285B2, “Benzophenone derivatives or salts thereof” (Toyama Chemical Co., Ltd., priority 2001, dated 2010)

What was measured:
[1] = biological target: T1, AP-1 complex (Fos/Jun peptide) (Homo sapiens, UniProt P01100+P05412); experiment: Effect on AP-1 binding activity to AP-1 recognition sequence (ELISA); conditions: inhibition of binding of digoxigenin-labeled AP-1 binding sequence oligonucleotide to Fos/Jun peptide, absorbance 492 nm, read-out: Concentration (μM) at 50% inhibition
T1 construct: made in house; host or cells: chemical peptide synthesis (no expression host)
Description: Test Example 1 Effect on AP-1 Binding Activity to AP-1 Recognition Sequence (ELISA)
Jun peptide and Fos peptide with its N-terminal labeled with biotin via 4 glycine residues containing a DNA binding site [Nature, Vol. 373, 1995, 257-261] were synthesized. Each of the peptides was dissolved in Tris buffer [20 mM Tris-hydrochloric acid (pH 7.5), 50 mM potassium chloride, 1 mM ethylenediaminetetraacetic acid, 10 mM magnesium chloride, 1 mM dithiothreitol, 0.5 M guanidinohydrochloric acid, 30% glycerol], and equimolar amounts of the peptide solutions were mixed with each other to be used as an AP-1 complex (Fos/Jun peptide). The AP-1 complex was added onto a 96-well avidin-coated ELISA plate (10 pmol/well). The plate was washed, blocked by bovine serum albumin, and used for binding assay.
Digoxigenin-labeled double-stranded oligonucleotide (22mer) that contained AP-1 binding sequence (3′-TGAGTCA-5′) synthesized by conventional procedure was reacted in binding reaction solution [25 mM tris-hydrochloric acid (pH 7.9), 0.5 mM ethylenediaminetetraacetic acid, 0.05% Nonidet P-40, 10% glycerol] for 30 minutes at room temperature in the presence or absence of samples. After the reaction, unbound labeled oligonucleotide was removed by washing with HEPES buffer containing 0.05% Tween-20. Then peroxidase-labeled anti-digoxigenin antibody was added to react with the labeled oligonucleotide bound to AP-1. After removing excess antibody by washing with HEPES buffer containing 0.05% Tween-20, incubation was conducted for a certain period with o-phenylene diamine as a substrate in 100 mM citric acid buffer (pH 5.0) containing hydrogen peroxide, sulfuric acid solution was added to each well, and the absorbance (492 nm) was measured. Inhibition rate of each sample was calculated from the absorbance obtained in the binding assay carried out in the presence of the sample, taking the absorbance obtained in the absence of the sample=100%.

Male DBA/1J mice = experiment: Type II collagen-induced arthritis in mouse; assay type: in vivo; conditions: 10 mg/kg orally once a day from 21 to 35 days after the initial inoculation, vs control group; for Bone destruction inhibition rate: X-ray bone destruction score 36 days after initial inoculation; for Arthritis inhibition rate: arthritis score on 36 days after initial inoculation
Description: Test Example 2 Type II Collagen-Induced Arthritis in Mouse
Male DBA/1J mice aged 8 weeks (Charles River Japan) were used. To a solution of 2 mg/mL bovine type II collagen in 0.1 mol/L acetic acid (Koken), an […] of Freund's complete adjuvant (DIFCO) was added to prepare an emulsion, and 0.2 ml of the emulsion was subcutaneously injected in the tail root region of each mouse. The same treatment was given 21 days after the initial inoculation to induce arthritis in the mice. Test compounds were each suspended in 0.5% methylcellulose solution, and 10 mg/kg of each test compound was given orally to mice once a day from 21 to 35 days after the initial inoculation. To a control group (a negative control group), 0.5% methylcellulose solution was given in the same manner.
Taking the maximum score as 12, the arthritis score was calculated to evaluate the severity of arthritis that was evaluated in the following manner: score 0: no change; score 1: swelling on one or two toes, or slight swelling in the carpal and tarsal joints; score 2: swelling and rubor in more joints; score 3: extensive swelling over whole foreleg or hindleg; and total of the four legs was calculated.
X-ray photographs of four paws were taken 36 days after the initial inoculation, and the severity of bone destruction was evaluated as bone destruction score on a maximum scale, the sum of the points for extremities, of 105 points: 0 or 0.5 points in accordance with presence or absence of osteoporosis in the joints and their vicinity, and for bone erosion, no change at 0 point; “partial bone destruction” at 1 point and “complete bone destruction” at 2 points in the second to fifth interdigital joints, the first to fifth metacarpal and metatarsal joints, and carpal, tarsal and calcaneal regions. Inhibition rate was calculated using the following equation: Inhibition rate(%)=100−(score of the group given the test compound/score of the control group)×100

T1 sequence (P01100 137-200 limits assumed): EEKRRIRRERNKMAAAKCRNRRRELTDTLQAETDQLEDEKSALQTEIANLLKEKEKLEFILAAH
T1 sequence (P05412 252-315 limits assumed): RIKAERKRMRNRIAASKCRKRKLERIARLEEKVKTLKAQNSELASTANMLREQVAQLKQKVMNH

Structure (SMILES)	IC50 [1] [µM]	Bone destruction inhibition rate (Male DBA/1J mice) [%]	Arthritis inhibition rate (Male DBA/1J mice) [%]
CC(C)COc1ccc(C(=O)c2ccc(OCc3ccc(C(=O)NS(C)(=O)=O)cc3)c(CCC(=O)O)c2)c(O)c1 [49(8)]	320	–	–
CCOC(=O)CCc1cc(C(=O)c2ccc(OCC(C)C)cc2O)ccc1OCc1ccc(C(=O)O)cc1 [72(1), 4-{[2-(3-ethoxy-3-oxopropyl)-4-(2-hydroxy-4-isobutoxybenzoyl)phenoxy]methyl} benzoic acid]	240	–	–
CC(C)(C)COc1ccc(C(=O)c2ccc(OCc3ccc(C(=O)O)cc3)c(CCC(=O)O)c2)c(O)c1 [49(19)]	280	–	–
CC(C)COc1ccc(C(=O)c2ccc(OCc3ccc(C(=O)O)cc3)c(CCC(=O)O)c2)c(O)c1 [49(47)]	460	–	–
O=C(O)CCc1cc(C(=O)c2ccc(OCc3ccco3)cc2O)ccc1OCc1ccc(C(=O)O)cc1 [49(40)]	280	–	–
O=C(O)CCc1cc(C(=O)c2ccc(-c3cccs3)cc2O)ccc1OCc1ccc(C(=O)O)cc1 [49(16)]	380	–	–
CC(C)COc1ccc(C(=O)c2ccc(OCc3ccc(C(=O)O)cc3)c(CCC(=O)O)c2)c(OCC(C)C)c1 [49(9)]	490	–	–
O=C(O)CCc1cc(C(=O)c2ccc(OC3CCCC3)cc2O)ccc1OCc1csc2c(C(=O)O)cccc12 [Example 45, 3-({2-(2-carboxyethyl)-4-[4-(cyclopentyloxy)-2-hydroxybenzoyl]phenoxy}methyl)-1-benzothiophene-7-carboxilic acid]	140	81	55
O=C(CCc1cc(C(=O)c2ccc(OC3CCCC3)cc2O)ccc1OCc1ccc2c(O)noc2c1)OCCN1CCOCC1 [Example 76, 2-(4-morpholinyl) ethyl 3-{5-[4-(cyclopentyloxy)-2-hydroxybenzoyl]-2-[(3-hydroxy-1,2-benzisoxazol-6-yl)methoxy]phenyl} propanoate]	–	99	90
O=C(O)CCc1cc(C(=O)c2ccc(OC3CCCC3)cc2O)ccc1OCc1ccc2c(O)noc2c1 [Example 35, 3-{5-[4-(cyclopentyloxy)-2-hydroxybenzoyl]-2-[(3-hydroxyl-1,2-benzisoxazol-6-yl)methoxy]phenyl}propanoic acid]	290	92	76
COc1cc(COc2ccc(C(=O)c3ccc(OC4CCCC4)cc3O)cc2CCC(=O)O)ccc1CCC(=O)O [49(11)]	390	–	–
CN1CCN(c2ccc(COc3ccc(C(=O)c4ccc(OC5CCCC5)cc4O)cc3CCC(=O)O)cc2)C(=O)C1=O [49(76)]	380	–	–
CCOC(=O)c1ccc(COc2ccc(C(=O)c3ccc(OC4CCCC4)cc3O)cc2CCC(=O)O)cc1OC [54(2), 3-(5-[4-(cyclopentyloxy)-2-hydroxybenzoyl]-2-{[4-(ethoxycarbonyl)-3-methoxybenzyl]oxy}phenyl) propanoic acid]	–	78	65
O=C(O)CCc1cc(C(=O)c2ccc(OC3CCCC3)cc2O)ccc1OCc1ccc2[nH]c(=O)[nH]c(=O)c2c1 [49(70)]	180	–	–
CC(C)COc1ccc(C(=O)c2ccc(OCc3ccc(C(=O)NO)cc3)c(CCC(=O)O)c2)c(O)c1 [49(48)]	310	–	–

Continued, in another order:

IC50 [1] [µM]	Structure (SMILES)	Bone destruction inhibition rate (Male DBA/1J mice) [%]	Arthritis inhibition rate (Male DBA/1J mice) [%]
170	O=C(O)CCc1cc(C(=O)c2ccc(OC3CCCC3)cc2O)ccc1OCc1ccc(-c2cc(O)no2)cc1 [Example 47, 3-(5-[4-(cyclopentyloxy)-2-hydroxybenzoyl]-2-{[4-(3-hydroxy-5-isoxazolyl)benzyl]oxy}phenyl) propanoic acid]	–	–
240	Cc1cc(C(=O)O)ccc1COc1ccc(C(=O)c2ccc(OC3CCCC3)cc2O)cc1CCC(=O)O [49(3)]	–	–
700	COc1cc(COc2ccc(C(=O)c3ccc(OC4CCCC4)cc3O)cc2CCC(=O)O)ccc1C(=O)O [Example 48, 4-({2-(2-carboxyethyl)-4-[4-(cyclopentyloxy)-2-hydroxybenzoyl]phenoxy}methyl)-2-methoxybenzoic acid]	64	57
220	O=C(O)CCc1cc(C(=O)c2ccc(OCC3CCCC3)cc2O)ccc1OCc1ccc(C(=O)O)cc1 [49(29)]	–	–
380	O=C(O)CCc1cc(C(=O)c2ccc(OC3CCCC3)cc2O)ccc1OCc1nc2cc(C(=O)O)ccc2s1 [49(77)]	–	–
330	O=C(O)/C=C/c1ccc(COc2ccc(C(=O)c3ccc(OC4CCCC4)cc3O)cc2CCC(=O)O)cc1 [Example 46, (E)-3-(4-{[4-[4-(cyclopentyloxy)-2-hydroxybenzoyl]-2-(3-hydroxy-3-oxopropyl)phenoxy]methyl}phenyl)-2-propenoic acid]	–	–
360	O=C(O)CCc1cc(C(=O)c2ccc(C3CCCC3)cc2O)ccc1OCc1ccc(C(=O)O)cc1 [49(39)]	–	–
130	O=C(O)CCc1cc(C(=O)c2ccc(OCC3CCCCC3)cc2O)ccc1OCc1ccc(C(=O)O)cc1 [49(56)]	–	–
320	CC(C)COc1cc(COc2ccc(C(=O)c3ccc(OC4CCCC4)cc3O)cc2CCC(=O)O)ccc1C(=O)O [49(46)]	–	–
420	O=C(O)CCc1cc(C(=O)c2ccc(OC3CCCC3)cc2O)ccc1OCc1ccc(C(=O)O)cc1 [Example 44, 4-({2-(2-carboxyethyl)-4-[4-(cyclopentyloxy)-2-hydroxybenzoyl]phenoxy}methyl) benzoic acid]	–	–
310	O=C(O)CCc1cc(C(=O)c2ccc(OC3CCCC3)cc2O)ccc1OCc1ccc(C(=O)O)cc1O [32(1), 4-({2-(2-carboxyethyl)-4-[4-(cyclopentyloxy)-2-hydroxybenzoyl]phenoxy}methyl)-3-hydroxybenzoic acid]	–	–
200	O=C(O)CCc1cc(C(=O)c2ccc(CC3CCCC3)cc2O)ccc1OCc1ccc(C(=O)O)cc1 [49(22)]	–	–
700	CC(Oc1ccc(C(=O)c2ccc(OC3CCCC3)cc2O)cc1CCC(=O)O)c1ccc(C(=O)O)cc1 (centres unmarked) [49(12)]	76	50
330	O=C(O)CCc1ccc(COc2ccc(C(=O)c3ccc(OC4CCCC4)cc3O)cc2CCC(=O)O)cc1 [49(1)]	–	–
270	O=C(O)CCc1cc(C(=O)c2ccc(OC3CCCC3)cc2O)ccc1OCc1ccc(S(=O)(=O)O)cc1 [49(54)]	–	–
190	O=C(O)CCc1cc(C(=O)c2ccc(OC3CCCCCC3)cc2O)ccc1OCc1ccc(C(=O)O)cc1 [49(58)]	–	–
320	O=C(O)CCc1cc(C(=O)c2ccc(OC3CCCCC3)cc2O)ccc1OCc1ccc(C(=O)O)cc1 [49(20)]	–	–
300	O=C(O)CCc1cc(C(=O)c2ccc(OC3CCCC3)cc2O)ccc1OCc1ccc(C(=O)O)cc1F [49(51)]	–	–
580	CS(=O)(=O)NC(=O)c1ccc(COc2ccc(C(=O)c3ccc(OC4CCCC4)cc3O)cc2CCC(=O)O)cc1 [49(62)]	–	–
